IC50 data for two molecules are collected here from patent US20260345623A1, “NOVEL […] HETEROCYCLIC CARBALDEHYDE COMPOUND AND PHARMACEUTICAL COMPOSITION, CONTAINING SAME, FOR IRE1alpha INHIBITION” (HANMI PHARM. CO., LTD., priority 2022, published 2026).

In this test the target is T1, spliced XBP1 mRNA (target of IRE endonuclease) in MCF-7 cancer cells (Homo sapiens, UniProt O75460).
T1 construct: tunicamycin ER stress; RT-PCR of spliced XBP1 mRNA (RNase domain activity)
The test is described as follows: Spliced XBP1 mRNA Measurement Test (RT-PCR, tunicamycin-induced ER stress, MCF-7 cells). Particulars: 1 hour pre-treatment with compound, 2 μg/mL tunicamycin 6 or 24 hours, spliced XBP1 corrected by total XBP1, read-out: XBP1 mRNA (IC50). The test is classed as cell-based. The method, then: A reverse transcription polymerase chain reaction is a test method in which RNA is extracted from cells, reverse transcriptase is used to make cDNA, and relative mRNA expression level is measured through a polymerase chain reaction.
Briefly, MCF-7 cells were seeded in a 12-well plate and cultured in an incubator including 5% CO2 for one day. On the next day, compounds, which were 10-fold serially diluted from 10,000 nM, were pre-treated for 1 hour, and then, treated with 2 μg/mL tunicamycin for 6 or 24 hours to induce endoplasmic reticulum stress, followed by cell lysis to obtain RNA. RNA was subjected to the procedure of RNeasy Kits (Qiagen, 74106), and 5 μg of RNA sample was dissolved in a sample including reverse transcriptase and dNTP, and reverse transcription reaction was performed with a thermal cycler. The amount of mRNA of each of spliced XBP1 and total XBP1 was measured by a polymerase chain reaction through real time PCR by mixing each cDNA sample with a PCR reaction mixture including a primer pair capable of binding specifically to each target and SYBR green dye. The expression level of spliced XBP1 was corrected by the total expression level of XBP1, and the relative expression levels of spliced XBP1 between samples were compared and analyzed.

One may read the IC50 as the concentration that inhibits the measured activity by half.

T1 sequence (O75460 19-977): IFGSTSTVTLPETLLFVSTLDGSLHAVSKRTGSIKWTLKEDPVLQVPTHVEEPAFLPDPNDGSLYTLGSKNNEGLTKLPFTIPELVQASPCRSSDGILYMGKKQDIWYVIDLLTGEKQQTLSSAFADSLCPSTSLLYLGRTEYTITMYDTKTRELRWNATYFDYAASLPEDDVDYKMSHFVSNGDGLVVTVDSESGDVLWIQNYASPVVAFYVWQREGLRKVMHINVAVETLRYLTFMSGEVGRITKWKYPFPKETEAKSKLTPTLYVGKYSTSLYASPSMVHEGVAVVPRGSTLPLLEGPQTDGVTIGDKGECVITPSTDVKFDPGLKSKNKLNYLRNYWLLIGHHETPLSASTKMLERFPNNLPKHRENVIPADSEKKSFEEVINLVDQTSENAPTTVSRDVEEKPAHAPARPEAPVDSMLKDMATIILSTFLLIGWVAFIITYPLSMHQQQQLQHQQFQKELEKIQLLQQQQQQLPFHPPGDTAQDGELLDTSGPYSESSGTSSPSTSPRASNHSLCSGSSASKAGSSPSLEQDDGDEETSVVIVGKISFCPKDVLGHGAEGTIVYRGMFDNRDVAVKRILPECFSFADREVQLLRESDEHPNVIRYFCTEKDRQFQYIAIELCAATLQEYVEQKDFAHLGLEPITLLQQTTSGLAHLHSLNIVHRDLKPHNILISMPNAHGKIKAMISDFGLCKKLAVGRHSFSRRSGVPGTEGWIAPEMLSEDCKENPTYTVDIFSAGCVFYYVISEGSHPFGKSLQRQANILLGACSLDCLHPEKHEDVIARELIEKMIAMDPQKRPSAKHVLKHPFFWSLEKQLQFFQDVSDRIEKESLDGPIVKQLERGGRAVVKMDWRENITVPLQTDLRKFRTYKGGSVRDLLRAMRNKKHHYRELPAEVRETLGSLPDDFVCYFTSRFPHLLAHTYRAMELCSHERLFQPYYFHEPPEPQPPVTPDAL

For `Cc1c(CC(=O)N2CCSC2)c(=O)oc2c(C=O)c(O)c3c(c12)CCCO3` [Example 30, 6-hydroxy-1-methyl-3-oxo-2-(2-oxo-2-(thiazolidin-3-yl)ethyl)-3,8,9,10-tetrahydropyrano[3,2-f]chromene-5-carbaldehyde], the concentration for half-maximal inhibition (IC50) was < 100 nM.

With `Cc1c(CC(=O)N2CCNCC2)c(=O)oc2c(C=O)c(O)c3c(c12)CCCO3` [Example 31, 6-hydroxy-1-methyl-3-oxo-2-(2-oxo-2-(piperazin-1-yl)ethyl)-3,8,9,10-tetrahydropyrano[3,2-f]chromene-5-carbaldehyde], the IC50 is > 200 nM.
